The source made the active and inactive calls.
Tests used:
[1] = Luminescence Cell-Based Dose Response HTS to Identify Activators of Luciferase Translation or Activity in H4 […] Cells. [Related pubchem assays: 1829 (Project Summary), 1814 (Primary HTS)]; format: functional
[2] = target: T1, Oxysterols receptor LXR-beta (Homo sapiens, UniProt P55055); format: functional, cell-based;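 note: agonist activity at LXR measured by a cell-based luminescence readout across a dose range, run as a counterscreen for daf-12 agonists; HEK293 cells with Gal4-LXR fusion and GAL4-driven luciferase reporter; potency for activation of Gal4-LXR reporter so compounds are agonists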
T1 sequence (P55055 whole entry): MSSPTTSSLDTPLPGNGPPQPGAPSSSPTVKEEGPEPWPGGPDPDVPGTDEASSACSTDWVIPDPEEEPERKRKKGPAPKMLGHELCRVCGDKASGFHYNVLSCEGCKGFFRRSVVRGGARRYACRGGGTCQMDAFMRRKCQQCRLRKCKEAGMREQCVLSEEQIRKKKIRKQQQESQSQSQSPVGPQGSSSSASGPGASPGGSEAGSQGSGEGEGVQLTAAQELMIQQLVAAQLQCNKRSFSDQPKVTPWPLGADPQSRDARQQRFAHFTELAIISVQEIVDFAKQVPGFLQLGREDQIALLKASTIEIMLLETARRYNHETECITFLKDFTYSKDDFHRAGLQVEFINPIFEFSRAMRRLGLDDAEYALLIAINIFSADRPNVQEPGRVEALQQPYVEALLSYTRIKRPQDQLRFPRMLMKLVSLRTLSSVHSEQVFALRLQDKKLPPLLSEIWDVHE

H4 = test: Luminescence Cell-Based Dose Response HTS to Identify Activators of 5'UTR Stem-Loop Driven Prion Protein mRNA Translation in H4 Neuroglioblastoma Cells. [Related pubchem assays: 1829 (Project Summary), 1814 (Primary HTS)]; format: functional; conditions: Homo sapiens
cells [3] = conditions: HEK293
[4] = target: T2, Sentrin-specific protease 6 (Homo sapiens, UniProt Q9GZR1); format: functional;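 note: Luminescence-based dose-response confirmatory assay of SENP6 inhibition, following up an ultra-high-throughput screen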
T2 sequence (Q9GZR1 whole entry): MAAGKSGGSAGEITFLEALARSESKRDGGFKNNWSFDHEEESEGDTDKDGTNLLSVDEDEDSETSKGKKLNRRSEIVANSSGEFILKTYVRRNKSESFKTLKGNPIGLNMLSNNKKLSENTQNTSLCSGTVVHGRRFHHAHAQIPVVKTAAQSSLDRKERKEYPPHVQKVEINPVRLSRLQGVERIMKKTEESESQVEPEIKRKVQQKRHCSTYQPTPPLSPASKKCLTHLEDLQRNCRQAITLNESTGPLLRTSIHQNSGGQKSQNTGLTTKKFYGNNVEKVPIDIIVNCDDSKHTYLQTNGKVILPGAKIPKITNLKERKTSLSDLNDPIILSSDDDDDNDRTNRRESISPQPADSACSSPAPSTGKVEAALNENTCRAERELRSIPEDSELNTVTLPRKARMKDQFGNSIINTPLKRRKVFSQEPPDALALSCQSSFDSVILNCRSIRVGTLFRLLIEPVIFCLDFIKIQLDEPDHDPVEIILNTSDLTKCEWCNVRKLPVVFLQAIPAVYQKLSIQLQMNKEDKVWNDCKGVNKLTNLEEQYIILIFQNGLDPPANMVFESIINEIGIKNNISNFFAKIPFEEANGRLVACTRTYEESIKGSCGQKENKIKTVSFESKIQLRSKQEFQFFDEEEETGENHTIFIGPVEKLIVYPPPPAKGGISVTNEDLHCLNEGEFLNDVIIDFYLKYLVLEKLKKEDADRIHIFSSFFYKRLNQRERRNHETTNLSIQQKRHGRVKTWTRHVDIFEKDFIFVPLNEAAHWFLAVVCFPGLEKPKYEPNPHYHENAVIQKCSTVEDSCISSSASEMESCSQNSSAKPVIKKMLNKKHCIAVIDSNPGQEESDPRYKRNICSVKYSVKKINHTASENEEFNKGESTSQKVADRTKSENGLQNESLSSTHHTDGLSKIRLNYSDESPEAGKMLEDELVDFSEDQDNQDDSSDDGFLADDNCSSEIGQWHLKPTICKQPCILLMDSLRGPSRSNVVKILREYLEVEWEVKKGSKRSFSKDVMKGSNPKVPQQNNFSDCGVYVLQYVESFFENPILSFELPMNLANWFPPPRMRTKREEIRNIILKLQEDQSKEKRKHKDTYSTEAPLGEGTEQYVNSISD

Caspase-3 = target: T3, Caspase-3 (Homo sapiens, UniProt P42574); format: functional;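 note: Dose-response selectivity test against caspase-3 for candidate inhibitors of sentrin-specific proteases (SENPs)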
T3 sequence (P42574 whole entry): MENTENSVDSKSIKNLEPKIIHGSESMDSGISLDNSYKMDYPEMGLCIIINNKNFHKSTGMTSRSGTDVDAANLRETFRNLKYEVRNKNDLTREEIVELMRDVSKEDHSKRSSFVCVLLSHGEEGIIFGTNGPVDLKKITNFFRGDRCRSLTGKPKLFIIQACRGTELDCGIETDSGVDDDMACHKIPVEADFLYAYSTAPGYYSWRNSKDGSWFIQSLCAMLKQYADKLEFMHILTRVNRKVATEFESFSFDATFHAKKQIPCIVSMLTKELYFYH

[5] = target: T4, Sentrin-specific protease 7 (Homo sapiens, UniProt Q9BQF6); format: functional;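 note: Luminescence-based dose-response confirmation of ultra-high-throughput screening hits, measuring inhibition of SENP7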
T4 sequence (Q9BQF6 whole entry): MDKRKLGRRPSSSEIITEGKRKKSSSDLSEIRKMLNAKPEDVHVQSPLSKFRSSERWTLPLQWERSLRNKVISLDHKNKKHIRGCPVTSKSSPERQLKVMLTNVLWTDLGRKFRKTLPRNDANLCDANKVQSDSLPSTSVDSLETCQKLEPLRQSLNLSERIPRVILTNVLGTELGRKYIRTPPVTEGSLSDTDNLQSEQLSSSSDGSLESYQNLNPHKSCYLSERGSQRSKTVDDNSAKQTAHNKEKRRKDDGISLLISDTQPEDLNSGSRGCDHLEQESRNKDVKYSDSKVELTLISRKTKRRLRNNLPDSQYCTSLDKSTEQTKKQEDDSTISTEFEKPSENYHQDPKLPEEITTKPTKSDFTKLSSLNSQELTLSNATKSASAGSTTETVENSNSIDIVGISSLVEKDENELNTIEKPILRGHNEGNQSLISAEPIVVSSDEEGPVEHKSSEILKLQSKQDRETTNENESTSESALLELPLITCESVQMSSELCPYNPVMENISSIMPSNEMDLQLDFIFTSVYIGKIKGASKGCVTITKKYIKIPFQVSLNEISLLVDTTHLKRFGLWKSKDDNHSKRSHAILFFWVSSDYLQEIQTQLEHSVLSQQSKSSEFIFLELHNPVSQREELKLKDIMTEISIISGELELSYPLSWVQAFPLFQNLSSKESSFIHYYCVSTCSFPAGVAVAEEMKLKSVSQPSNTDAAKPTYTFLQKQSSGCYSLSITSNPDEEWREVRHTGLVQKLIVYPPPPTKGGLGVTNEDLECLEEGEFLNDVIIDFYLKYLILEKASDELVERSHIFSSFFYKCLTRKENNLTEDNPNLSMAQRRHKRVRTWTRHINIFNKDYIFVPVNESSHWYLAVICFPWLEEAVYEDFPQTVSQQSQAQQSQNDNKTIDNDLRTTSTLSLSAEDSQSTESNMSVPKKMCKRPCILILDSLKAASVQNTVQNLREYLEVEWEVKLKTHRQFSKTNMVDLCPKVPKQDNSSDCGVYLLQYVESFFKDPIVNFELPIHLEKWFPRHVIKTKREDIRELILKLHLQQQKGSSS

[6] = target: T5, Sentrin-specific protease 8 (Homo sapiens, UniProt Q96LD8); format: functional;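 note: luminescence read-out of SENP8 inhibition, dose-response confirmation following an ultra-high-throughput screen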
T5 sequence (Q96LD8 whole entry): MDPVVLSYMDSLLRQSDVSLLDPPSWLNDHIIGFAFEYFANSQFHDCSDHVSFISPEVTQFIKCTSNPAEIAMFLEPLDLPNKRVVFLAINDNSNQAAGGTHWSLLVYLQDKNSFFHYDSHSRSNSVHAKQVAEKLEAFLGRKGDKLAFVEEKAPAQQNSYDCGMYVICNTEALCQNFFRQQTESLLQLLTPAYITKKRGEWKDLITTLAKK

cells [7] = conditions: A549
[8] = target: T6, High affinity choline transporter 1 (Homo sapiens, UniProt Q9GZV3); test: human choline transporter blockers, potency – cell-based, 5-point CRC, membrane potential dye, dose response (AID 504840); format: functional
T6 sequence (Q9GZV3 whole entry): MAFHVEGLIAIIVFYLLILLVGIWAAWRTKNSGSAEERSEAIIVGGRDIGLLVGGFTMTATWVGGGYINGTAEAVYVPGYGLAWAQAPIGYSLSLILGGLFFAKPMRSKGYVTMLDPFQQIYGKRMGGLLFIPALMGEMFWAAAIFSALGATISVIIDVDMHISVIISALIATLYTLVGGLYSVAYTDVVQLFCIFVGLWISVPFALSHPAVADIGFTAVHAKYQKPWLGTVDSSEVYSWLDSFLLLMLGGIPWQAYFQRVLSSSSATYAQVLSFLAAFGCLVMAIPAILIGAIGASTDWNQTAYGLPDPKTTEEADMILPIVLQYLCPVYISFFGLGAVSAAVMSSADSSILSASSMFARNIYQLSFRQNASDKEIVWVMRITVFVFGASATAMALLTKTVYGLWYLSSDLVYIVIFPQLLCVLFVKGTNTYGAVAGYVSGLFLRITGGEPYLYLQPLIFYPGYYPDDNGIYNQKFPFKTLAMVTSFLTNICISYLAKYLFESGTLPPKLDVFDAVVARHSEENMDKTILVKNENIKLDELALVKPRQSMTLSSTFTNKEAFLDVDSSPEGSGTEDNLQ

[9] = target: T7, Heat shock factor protein 1 (Mus musculus, UniProt P38532); test: enhancement of HSF1-driven luciferase signal – cell-based, NIH3T3, luminescence, dose retest, confirmation (AID 435004); format: functional;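 note: stress induced by proteasome inhibitor MG132 added 30 min after compound; luciferase reporter driven by HSF1 response element in NIH3T3 cells; actives raise luminescence as potentiators of the MG132 stress response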
T7 sequence (P38532 whole entry): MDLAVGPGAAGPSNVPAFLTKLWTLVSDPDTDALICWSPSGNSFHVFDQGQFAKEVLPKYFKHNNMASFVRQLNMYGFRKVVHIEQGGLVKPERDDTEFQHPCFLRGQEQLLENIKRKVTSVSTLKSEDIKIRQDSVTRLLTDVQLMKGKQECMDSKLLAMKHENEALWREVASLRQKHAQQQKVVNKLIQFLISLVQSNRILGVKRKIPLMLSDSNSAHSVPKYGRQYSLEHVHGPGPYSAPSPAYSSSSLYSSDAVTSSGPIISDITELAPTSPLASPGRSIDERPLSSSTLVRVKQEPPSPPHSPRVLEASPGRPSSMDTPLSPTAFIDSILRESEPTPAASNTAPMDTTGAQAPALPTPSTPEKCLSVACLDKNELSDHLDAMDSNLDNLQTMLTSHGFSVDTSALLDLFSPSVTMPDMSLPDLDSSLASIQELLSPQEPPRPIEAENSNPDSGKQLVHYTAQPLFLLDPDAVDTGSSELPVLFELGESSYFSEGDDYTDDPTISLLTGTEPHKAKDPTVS

In the case of Cn1c(NC(=O)CCc2ccccc2)cc(=O)n(C)c1=O, the EC50 [1] is reported as 4.41 µM (inconclusive), the EC50 [2] is reported as > 67.5 µM (inactive) and the EC50 (H4) is reported as 9.93 µM (active).
For CC(=O)c1sc(N/N=C\c2ccc(N(C)C)cc2)nc1C, the AC50 (cells [3]) was > 52 µM (inactive), the IC50 [4] was 3.82 µM (active) and the IC50 (Caspase-3) was 9.56 µM (active). For the same molecule, the IC50 [5] was 3.05 µM (active) and the IC50 [6] was 4.08 µM (active).
With O=C(Nc1ccc2c(c1)OCCO2)c1ccc(NC(=O)C2CCCO2)cc1 (configuration not stated) the AC50 (cells [7]) was > 52 µM (inactive).
In the case of O=C(Nc1ccn(Cc2ccccc2)n1)c1n[nH]c([N+](=O)[O-])c1Cl, the IC50 [8] is reported as 4.37 µM (active), the EC50 [2] is reported as > 67.5 µM (inactive) and the EC50 [9] is reported as > 260 µM (inconclusive).

Source: ChEMBL document CHEMBL1201862, “PubChem BioAssay data set” (2004)
